One series has as its target T1, Human plasma kallikrein (Homo sapiens, UniProt P03952).
T1 construct: purchased Protogen
In words: Determination of the IC50 for plasma kallikrein. Format: biochemical. Particulars: 25° C., substrate H-DPro-Phe-Arg-AFC; read-out: IC50 (human PKaI). The procedure:
Determination of the IC50 for Plasma Kallikrein
Plasma kallikrein inhibitory activity in vitro was determined using standard published methods (see e.g. Johansen et al., Int. J. Tiss. Reac. 1986, 8, 185; Shori et al., Biochem. Pharmacol., 1992, 43, 1209; Stürzebecher et al., Biol. Chem. Hoppe-Seyler, 1992, 373, 1025). Human plasma kallikrein (Protogen) was incubated at 25° C. with the fluorogenic substrate H-DPro-Phe-Arg-AFC and various concentrations of the test compound. Residual enzyme activity (initial rate of reaction) was determined by measuring the change in […] at 410 nm and the IC50 value for the test compound was determined.

In another series the target is T2, Human FXIa (Homo sapiens, UniProt P03951).
T2 construct: purchased Enzyme Research Laboratories
T2 sequence (P03951 388-625 limits assumed): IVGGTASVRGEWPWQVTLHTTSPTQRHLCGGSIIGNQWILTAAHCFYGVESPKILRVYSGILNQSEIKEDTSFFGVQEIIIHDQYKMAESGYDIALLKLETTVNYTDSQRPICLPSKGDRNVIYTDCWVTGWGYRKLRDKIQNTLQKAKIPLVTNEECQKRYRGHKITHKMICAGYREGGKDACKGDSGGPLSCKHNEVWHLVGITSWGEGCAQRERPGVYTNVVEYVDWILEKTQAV
T2 sequence (P03951 19-387 partner limits assumed): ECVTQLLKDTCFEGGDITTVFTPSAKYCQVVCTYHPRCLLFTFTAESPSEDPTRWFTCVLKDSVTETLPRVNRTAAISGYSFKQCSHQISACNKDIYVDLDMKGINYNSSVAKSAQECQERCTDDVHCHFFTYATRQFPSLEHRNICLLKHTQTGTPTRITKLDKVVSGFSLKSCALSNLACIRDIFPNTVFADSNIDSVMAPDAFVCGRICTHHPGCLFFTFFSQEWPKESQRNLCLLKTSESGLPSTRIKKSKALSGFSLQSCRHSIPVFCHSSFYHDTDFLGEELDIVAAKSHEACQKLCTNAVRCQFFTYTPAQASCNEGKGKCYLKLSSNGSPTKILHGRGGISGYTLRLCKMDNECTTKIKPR
In words: Determination of the % inhibition for FXIa. Conditions: 40 μM test compound, 25° C. In kind it is biochemical. The protocol:
Determination of the % Inhibition for FXIa
FXIa inhibitory activity in vitro was determined using standard published methods (see e.g. Johansen et al., Int. J. Tiss. Reac. 1986, 8, 185; Shori et al., Biochem. Pharmacol., 1992, 43, 1209; Stürzebecher et al., Biol. Chem. Hoppe-Seyler, 1992, 373, 1025). Human FXIa (Enzyme Research Laboratories) was incubated at 25° C. with the fluorogenic substrate Z-Gly-Pro-Arg-AFC and 40 μM of the test compound. Residual enzyme activity (initial rate of reaction) was determined by measuring the change in optical absorbance at 410 nm.

The next series concerns the target T3, Human KLK1 (Homo sapiens, UniProt P06870).
T3 construct: purchased Callbiochem
As to the kind of experiment: Determination of the IC50 for KLK1. In kind it is biochemical. Conditions: 25° C., substrate H-DVaI-Leu-Arg-AFC. The procedure:
Determination of the IC50 for KLK1
KLK1 inhibitory activity in vitro was determined using standard published methods (see e.g. Johansen et al., Int. J. Tiss. Reac. 1986, 8, 185; Shori et al., Biochem. Pharmacol., 1992, 43, 1209; Stürzebecher et al., Biol. Chem. Hoppe-Seyler, 1992, 373, 1025). Human KLK1 (Callbiochem) was incubated at 25° C. with the fluorogenic substrate H-DVaI-Leu-Arg-AFC and various concentrations of the test compound. Residual enzyme activity (initial rate of reaction) was determined by measuring the change in […] at 410 nm and the IC50 value for the test compound was determined.

Series [1] in a line: Pharmacokinetic study, single oral dose in rats. In kind it is in vivo. Conditions: male, Sprague-Dawley; rat, po 11.3 mg/kg, vehicle 10% DMSO/10% cremophor/80% SWFI, plasma. The procedure:
A pharmacokinetic study of N-[(2,6-difluoro-3-methoxyphenyl)methyl]-3-(methoxymethyl)-1-({4-[(2-oxopyridin-1-yl)methyl]phenyl}methyl)pyrazole-4-carboxamide was performed to assess the pharmacokinetics following a single oral dose in male Sprague-Dawley rats. Two rats were given a single po dose of 5 mL/kg of a nominal 2 mg/mL (10 mg/kg) composition of test compound in vehicle. Following dosing, blood samples were collected over a period of 24 hours. Sample times were 5, 15 and 30 minutes then 1, 2, 4, 6, 8 and 12 hours. Following collection, blood samples were centrifuged and the plasma fraction analysed for concentration of test compound by LCMS.

The test system of series [2] is intrinsic pathway of coagulation. Particulars: in vitro; cited from earlier work.
The conditions of series [3]: in vivo; cited from earlier work.
The test system of a further series is blood. Particulars: contacting blood with the substance; cited from earlier work.
Series [4] deals with LPS-induced disseminated intravascular coagulation. Particulars: cited from earlier work.

Where only a bound is given, the exact number is not on record here.

One may read the IC50 as the concentration that gives 50% inhibition. For orientation: inhibition means the change of the read-out against control, counted positive when it falls. Higher therefore signals a response far below the control. The term Cmax denotes the maximum level reached in the sampled fluid or tissue. The Tmax is the time at which the peak concentration occurs.

T3 sequence (P06870 25-262): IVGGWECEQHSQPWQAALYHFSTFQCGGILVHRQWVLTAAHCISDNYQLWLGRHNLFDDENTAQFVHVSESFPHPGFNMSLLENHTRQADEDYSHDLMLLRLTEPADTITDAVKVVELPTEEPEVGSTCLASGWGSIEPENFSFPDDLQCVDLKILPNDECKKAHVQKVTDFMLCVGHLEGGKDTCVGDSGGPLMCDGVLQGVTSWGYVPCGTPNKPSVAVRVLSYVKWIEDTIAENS
T1 sequence (P03952 391-638 limits assumed): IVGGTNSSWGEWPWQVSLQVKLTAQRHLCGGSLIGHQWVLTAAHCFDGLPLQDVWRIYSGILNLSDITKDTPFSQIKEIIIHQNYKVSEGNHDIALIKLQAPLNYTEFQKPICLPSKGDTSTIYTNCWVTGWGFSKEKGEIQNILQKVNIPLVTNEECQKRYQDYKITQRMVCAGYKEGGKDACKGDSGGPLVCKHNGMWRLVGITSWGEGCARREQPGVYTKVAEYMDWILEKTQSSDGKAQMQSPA
T1 sequence (P03952 20-390 partner limits assumed): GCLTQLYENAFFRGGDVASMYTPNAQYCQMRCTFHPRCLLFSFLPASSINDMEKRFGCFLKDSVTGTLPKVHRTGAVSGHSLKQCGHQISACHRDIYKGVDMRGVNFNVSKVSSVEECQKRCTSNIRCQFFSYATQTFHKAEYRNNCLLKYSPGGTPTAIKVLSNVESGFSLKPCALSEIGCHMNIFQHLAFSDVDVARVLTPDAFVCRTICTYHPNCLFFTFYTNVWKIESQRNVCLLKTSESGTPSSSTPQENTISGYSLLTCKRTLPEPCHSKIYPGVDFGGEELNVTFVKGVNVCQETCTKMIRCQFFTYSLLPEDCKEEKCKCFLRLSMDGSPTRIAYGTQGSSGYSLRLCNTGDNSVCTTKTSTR

On to `COCc1nn(Cc2ccc(Cn3ccccc3=O)cc2)cc1C(=O)NCc1c(F)ccc(OC)c1F` [N-[(2,6-difluoro-3-methoxyphenyl)methyl]-3-(methoxymethyl)-1-({4-[(2-oxopyridin-1-yl)methyl]phenyl}methyl)pyrazole-4-carboxamide], for which the concentration for half-maximal inhibition (IC50) at Human plasma kallikrein amounted to 4.5 nM. In addition, on Human FXIa, the inhibition at 40 µM turned out to be 4%. At Human KLK1, this compound had an IC50 of more than 10000 nM. In series [1], the Cmax was determined as 2890 ng/mL and the Tmax is 1 h.
For Ecallantide, the “Contact activated induced coagulation” value in series [2] was “delay contact activated induced coagulation”. The Anaphylactic reactions result in series [3] is listed as “risks of anaphylactic reactions”. Besides, the “Activated clotting time (ACT)” value in the series on blood is “increase in activated clotting time”.
Consider `Cl.NCC1CCC(C(=O)N[C@@H](Cc2ccccc2)C(=O)Nc2ccc(CC(=O)O)cc2)CC1` (stereo partly drawn) [PKSI-527], for which, in series [4], the “Decrease in platelet count and fibrinogen level and increase in FDP level” value is listed as “significantly suppressed”.

The values above are taken from patent US20200317639A1, “POLYMORPHS OF N-[(2,6-DIFLUORO-3-METHOXYPHENYL)METHYL]-3-(METHOXYMETHYL)-1-({4-[(2-OXOPYRIDIN-1YL)METHYL]PHENYL}METHYL)PYRAZOLE-4-CARBOXAMIDE” (KALVISTA PHARMACEUTICALS LIMITED, priority 2016, published 2020).
